In PMC4669759 (Cell Death & Disease, 2015):

Legend:
[1] = molecular target: BCL-2 (Homo sapiens, UniProt P10415); assay: TR-FRET binding affinity assay, BCL-2
Description: TR-FRET-binding affinity assays were performed for BCL-2, BCL-XL, and MCL-1 in 4.52 mM monobasic potassium phosphate, 15.48 mM dibasic potassium phosphate, 1 mM sodium EDTA, 0.05% Pluronic F-68 detergent, 50 mM sodium chloride, and 1 mM DTT (pH 7.5) as described previously for BCL-XL.[6] For MCL-1 assays, GST-tagged MCL-1 (1 nM) was mixed with 100 nM f-Bak, 1 nM Tb-labeled anti-GST antibody, and compound at room temperature (RT) for 60 min. Fluorescence was measured on an Envision plate reader (Perkin-Elmer, Waltham, MA, USA) using a 340/35 nm excitation filter and 520/525 (f-Bak) and 495/510 nm (Tb-labeled anti-GST antibody) emission filters.

[2] = molecular target: MCL-1 (Homo sapiens, UniProt Q07820); assay: MCL-1 protein levels by immunoblotting in HCC-1806 cells; format: cell-based; design: endogenous in cells; host or cells: HCC-1806; settings: immunoblot
Chain of MCL-1 (Q07820 whole entry): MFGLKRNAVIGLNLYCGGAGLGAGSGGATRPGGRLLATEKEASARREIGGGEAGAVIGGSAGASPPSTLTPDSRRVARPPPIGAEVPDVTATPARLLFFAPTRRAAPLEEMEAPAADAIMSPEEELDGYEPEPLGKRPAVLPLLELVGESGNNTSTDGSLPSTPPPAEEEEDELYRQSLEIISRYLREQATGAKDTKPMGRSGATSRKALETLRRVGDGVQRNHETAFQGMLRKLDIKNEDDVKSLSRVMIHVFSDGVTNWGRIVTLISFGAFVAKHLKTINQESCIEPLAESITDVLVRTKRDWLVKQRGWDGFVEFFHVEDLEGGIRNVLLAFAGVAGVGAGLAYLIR
Description: Figure 1 MCL-1 levels are elevated in cancer cells after treatment with MCL-1-binding small molecules. (a) H929 multiple myeloma cells were treated for 4 h with 10 μM A-1210477 before immunopreciptating MCL-1. […] A control H929 lysate was run in lane 1, and an immunoprecipitation with a non-specific antibody (Ig) was run in lane 2. The positions of molecular weight markers (specified in kiloDaltons) are indicated on the left. (b) HCC-1806 breast cancer cells were incubated with increasing concentrations of A-1210477 (0.1, 0.5, 1, 5, 10, 15, or 20 μM) or bortezomib (2, 10, or 50 nM) for 8 h before assessing MCL-1 and NOXA levels by immunoblotting. β-Actin was probed as a protein loading control. The lower graph depicts reverse transcriptase-PCR quantification of MCL1 mRNA from HCC-1806 cells treated for 8 h with similar concentrations of A-1210477. (c) HCC-1806 cells were incubated with increasing concentrations (0.1, 0.5, 1, 5, 10, and 20 μM) of A-954248, A-962653, or A-1248767 for 24 h before assessing MCL-1 and BCL-XL levels by immunoblotting. β-Actin was probed as a protein loading control
Cells were scraped into cold PBS, pelleted, and then resuspended in 100–200 μl ice-cold insect cell lysis buffer supplemented with protease inhibitors (BD Biosciences Pharmingen, San Diego, CA, USA). Cells were lysed by sonication, and the debris was cleared in a microcentrifuge. […]

Chain of BCL-2 (P10415 whole entry): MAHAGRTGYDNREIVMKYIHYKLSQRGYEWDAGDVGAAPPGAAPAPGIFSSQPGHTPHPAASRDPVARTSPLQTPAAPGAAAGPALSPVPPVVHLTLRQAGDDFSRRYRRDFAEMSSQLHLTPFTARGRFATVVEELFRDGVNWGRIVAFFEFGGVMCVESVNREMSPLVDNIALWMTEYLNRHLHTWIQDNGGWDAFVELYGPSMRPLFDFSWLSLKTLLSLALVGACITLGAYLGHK

Cc1nn(C)c(COc2ccc(N3CCN(S(=O)(=O)N(C)C)CC3)cc2)c1-c1cccc2c(CCCOc3cccc4ccccc34)c(C(=O)O)n(CCN3CCOCC3)c12 [A-1210477]
Ki [1]: 132 nM
effect on MCL-1 protein levels ([2]; 0.1-20 μM): triggered MCL-1 elevation
lowest concentration at which increases in MCL-1 protein could be observed ([2]; 8 h or 24 h): 0.5 µM
